According to ChEMBL document CHEMBL6127108, “Triantaspirols A-C and Paraphaeolactone Cs from Paraphaeosphaeria sp. KT4192: Sensitivity of CP3 in Distinguishing Close NMR Signals” (J Nat Prod, 2024):
Active and inactive are the calls of the source. The calls are words filed in the database; no cut-off is given here.

Test system: COLO 201
Experiment: Cytotoxicity against human COLO201 cells assessed as inhibition of cell growth incubated for 24 hrs by WST-1 assay
Format: functional, cell-based
Details: for IC50: COLO 201, 24 h

Oc1ccc(O)c2c1[C@@H](O)CCC21Oc2cccc3cccc(c23)O1
Activity: inactive

Cc1ccc(O)c2c1C(=O)[C@@](C)(Oc1ccc(O)c3c1[C@@H](O)CCC31Oc3cccc4cccc(c34)O1)O2
IC50: 17 µM

Cc1ccc(O)c2c1C(=O)[C@](C)(Oc1ccc(O)c3c1[C@@H](O)CCC31Oc3cccc4cccc(c34)O1)O2
IC50: 23 µM

CC[C@@]1(O)C(=O)OCc2c1cc1n(c2=O)Cc2cc3ccccc3nc2-1 [CAMPTOTHECIN]
IC50: 34 µM

C[C@@H]1C=C[C@@]2(O)[C@@H]3OC(=O)[C@@](O)([C@H]13)[C@@H]2Oc1ccc(O)c2c1C(=O)CCC21Oc2cccc3cccc(c23)O1
Activity: inactive
